Data taken from patent US4644063A, “1,3-oxazolidine-2-one derivatives” (Nippon Chemiphar Co., Ltd., priority 1984, dated 1987).
Counter-ions that a name gives are not always drawn.

What was measured:
[1] = test system: Anemic Decerebrate Rigidity Sample (EMG, M. triceps brachii); assay: Effects on Anemic Decerebrate Rigidity Sample (suppression of EMG of forelimb muscle); type: in vivo, Wistar male rats; settings: iv, 10 min; rat, 3 mg/kg in physiological saline through femoral vein, 10 minutes after administration; read-out: Suppression rate
[2] = test system: Glutamic Acid at Neuromuscular Junctions of Crayfish (opener muscles of the first walking legs); assay: Blocking effects against Glutamic Acid at Neuromuscular Junctions of Crayfish; settings: 5-minute pretreatment, L-glutamic acid 10^-4 M
[3] = Acute Toxicity (up-and-down method); settings: mouse, in vivo, iv (caudal vein), ddN male mice
Experimental: Using ddN male mice, the acute toxicity level of each test compound was determined in accordance with an up-and-down method. Some of the test compounds used were dissolved in physiological saline and administered through the caudal vein.

glutamic acid = settings: in higher animals; cited from earlier work
higher animals = settings: Oleny et al; cited from earlier work
[4] = test system: neuraxial muscle relaxing effect; assay: Neuraxial muscle relaxing effect, experiment conducted by the inventors; type: in vivo
[5] = reported by Nikolova; cited from earlier work
[6] = test compound 2 × 10^-4 M, 200 µM
[7] = test compound 2 × 10^-5 M, 20 µM

SMILES: CC(C)C[C@@H]1[C@@H](c2ccccc2)OC(=O)N1CCCN1CCCCC1 (racemic) [Compound 4, (4RS,5RS)-4-(2-methylpropyl)-5-phenyl-3-(3-piperidinopropyl)-1,3-oxazolidine-2-one]
- inhibition in vivo at 3 mg/kg [1]: 21.2%
- Blocking rate against glutamic acid [2, 6]: 88%
- LD50 [3]: 29.9 mg/kg

SMILES: N[C@@H](Cn1oc(=O)[nH]c1=O)C(=O)O [quisqualic acid]
- agonist for glutamic acid (glutamic acid): extremely strong agonist
- effects induced from administration (higher animals): dystropy, rigidity, tremor, convulsion and the like are induced

SMILES: CCCC[C@@H]1[C@H](c2ccccc2)OC(=O)N1CCCN1CCCCC1 (racemic) [Compound 36, (4RS,5SR)-4-butyl-5-phenyl-3-(3-piperidinopropyl)-1,3-oxazolidine-2-one]
- Blocking rate against glutamic acid [2, 7]: 53%

SMILES: CC(C)C[C@H]1[C@@H](c2ccccc2)OC(=O)N1CCCN1CCCCCC1 [Compound 17, (4S,5R)-4-(2-methylpropyl)-3-[3-(perhydroazepine-1-yl-)propyl]-5-phenyl-1,3-oxazolidine-2-one]
- inhibition in vivo at 3 mg/kg [1]: 93%
- Blocking rate against glutamic acid [2, 6]: 90%
- LD50 [3]: 40.1 mg/kg

SMILES: Cc1ccc(C(=O)C(C)CN2CCCCC2)cc1 (stereo not shown) [Comparative compound 1, toluperisone hydrochloride, reference compound]
- inhibition in vivo at 3 mg/kg [1]: 4.8%

SMILES: CC(C)C[C@@H]1[C@@H](c2ccccc2)OC(=O)N1CCCN1CCCC1 (racemic) [Compound 14, (4RS,5RS)-4-(2-methylpropyl)-5-phenyl-3-(3-pyrrolidinopropyl)-1,3-oxazolidine-2-one]
- inhibition in vivo at 3 mg/kg [1]: 10.2%
- LD50 [3]: 53.2 mg/kg

SMILES: N[C@H](C(=O)O)c1cc(=O)[nH]o1 [ibotenic acid]
- agonist for glutamic acid (glutamic acid): extremely strong agonist
- effects induced from administration (higher animals): dystropy, rigidity, tremor, convulsion and the like are induced

SMILES: CC(C)C[C@@H]1[C@H](c2ccccc2)OC(=O)N1CCCN1CCCC1 (racemic) [Compound 13, (4RS,5SR)-4-(2-methylpropyl)-5-phenyl-3-(3-pyrrolidinopropyl)-1,3-oxazolidine-2-one]
- Blocking rate against glutamic acid [2, 6]: 80%
- LD50 [3]: 75.1 mg/kg

SMILES: C=C(C)[C@H]1CN[C@H](C(=O)O)[C@H]1CC(=O)O [kainic acid]
- agonist for glutamic acid (glutamic acid): extremely strong agonist
- effects induced from administration (higher animals): dystropy, rigidity, tremor, convulsion and the like are induced

SMILES: COc1ccc([C@@H]2OC(=O)N(CCCN3CCCCC3)[C@@H]2CC(C)C)cc1 (racemic) [Compound 27, (4RS,5SR)-5-(4-methoxyphenyl)-4-(2-methylpropyl)-3-(3-piperidinopropyl)-1,3-oxazolidine-2-one]
- inhibition in vivo at 3 mg/kg [1]: 8.4%
- LD50 [3]: 39.8 mg/kg

SMILES: CC(C)C[C@@H]1[C@H](c2ccccc2)OC(=O)N1CCCN1CCCCC1 (racemic) [Compound 3, (4RS,5SR)-4-(2-methylpropyl)-5-phenyl-3-(3-piperidinopropyl)-1,3-oxazolidine-2-one]
- inhibition in vivo at 3 mg/kg [1]: 18%
- Blocking rate against glutamic acid [2, 6]: 89%
- LD50 [3]: 55.5 mg/kg

SMILES: CC(C)C[C@H]1[C@@H](c2ccccc2)OC(=O)N1CCCN1CCCCC1 [Compound 5, (4S,5R)-4-(2-methylpropyl)-5-phenyl-3-(3-piperidinopropyl)-1,3-oxazolidine-2-one]
- inhibition in vivo at 3 mg/kg [1]: 37.7%
- Blocking rate against glutamic acid [2, 6]: 91%
- LD50 [3]: 69 mg/kg

SMILES: CC(C)C[C@@H]1[C@@H](c2ccccc2)OC(=O)N1CCCN1CCCCC1 [Compound 8, (4R,5R)-4-(2-methylpropyl)-5-phenyl-3-(3-piperidinopropyl)-1,3-oxazolidine-2-one]
- inhibition in vivo at 3 mg/kg [1]: 12%

SMILES: CC(C)CC[C@@H]1[C@H](c2ccccc2)OC(=O)N1CCCN1CCCCC1 (racemic) [Compound 40, (4RS,5SR)-4-(3-methylbutyl)-5-phenyl-3-(3-piperidinopropyl)-1,3-oxazolidine-2-one]
- Blocking rate against glutamic acid [2, 7]: 61%
- LD50 [3]: 53.6 mg/kg

SMILES: CCCCCC[C@@H]1[C@@H](c2ccccc2)OC(=O)N1CCCN1CCCCC1 (racemic) [Compound 41, (4RS,5RS)-4-hexyl-5-phenyl-3-(3-piperidinopropyl)-1,3-oxazolidine-2-one]
- Blocking rate against glutamic acid [2, 7]: 69%

SMILES: C/C(=C/C=C/[C@@H](C)C(=O)O)[C@H]1CN[C@H](C(=O)O)[C@H]1CC(=O)O [domoic acid]
- agonist for glutamic acid (glutamic acid): extremely strong agonist
- effects induced from administration (higher animals): dystropy, rigidity, tremor, convulsion and the like are induced

SMILES: CC(C)[C@@H]1[C@@H](c2ccccc2)OC(=O)N1CCCN1CCCC1 (racemic) [Compound 10, (4RS, 5RS)-4-(1-methylethyl)-5-phenyl-3-(3-pyrrolidinopropyl)-1,3-oxazolidine-2-one]
- inhibition in vivo at 3 mg/kg [1]: 18.7%
- LD50 [3]: 54.6 mg/kg

SMILES: C[C@@H]1[C@@H](c2ccccc2)OC(=O)N1CCN1CCCC1 (racemic) [Comparative compound 5, (4RS,5RS)-4-methyl-5-phenyl-3-(2-pyrrolidinoethyl)-1,3-oxazolidine-2-one hydrochloride, reference compound]
- inhibition in vivo at 3 mg/kg [1]: 3%

SMILES: CC(C)[C@@H]1[C@H](c2ccccc2)OC(=O)N1CCCN1CCCCC1 (racemic) [Compound 1, (4RS,5SR)-4-(1-methylethyl)-5-phenyl-3-(3-piperidinopropyl)-1,3-oxazolidine-2-one]
- inhibition in vivo at 3 mg/kg [1]: 12%
- LD50 [3]: 29.7 mg/kg

SMILES: CCCC[C@@H]1[C@@H](c2ccccc2)OC(=O)N1CCCN1CCCCC1 (racemic) [Compound 35, (4RS,5RS)-4-butyl-5-phenyl-3-(3-piperidinopropyl)-1,3-oxazolidine-2-one]
- Blocking rate against glutamic acid [2, 7]: 68%

SMILES: C[C@@H]1[C@H](c2ccccc2)OC(=O)N1CCN1CCCCC1.Cl (racemic) [Comparative compound 2, (4RS,5SR)-4-methyl-5-phenyl-3-(2-piperidinoethyl)-1,3-oxazolidine-2-one hydrochloride, reference compound]
- inhibition in vivo at 3 mg/kg [1]: 3.6%
- Blocking rate against glutamic acid [2, 6]: 0%

SMILES: CC(C)C[C@@H]1[C@H](c2ccc(F)cc2)OC(=O)N1CCCN1CCCCC1 (racemic) [Compound 29, (4RS,5SR)-5-(4-fluorophenyl)-4-(2-methylpropyl)-3-(3-piperidinopropyl)-1,3-oxazolidine-2-one]
- inhibition in vivo at 3 mg/kg [1]: 9.9%
- LD50 [3]: 66.1 mg/kg

SMILES: CC(C)[C@@H]1[C@@H](c2ccccc2)OC(=O)N1CCCN1CCCCC1 (racemic) [Compound 2, (4RS,5RS)-4-(1-methylethyl)-5-phenyl-3-(3-piperidinopropyl)-1,3-oxazolidine-2-one]
- inhibition in vivo at 3 mg/kg [1]: 19.8%
- LD50 [3]: 18.8 mg/kg

SMILES: C[C@@H]1[C@@H](c2ccccc2)OC(=O)N1CCN1CCCCC1 (racemic) [Comparative compound 3, (4RS,5RS)-4-methyl-5-phenyl-3-(2-piperidinoethyl)-1,3-oxazolidine-2-one hydrochloride, reference compound]
- inhibition in vivo at 3 mg/kg [1]: 2.2%

SMILES: CCCCC[C@@H]1[C@@H](c2ccccc2)OC(=O)N1CCCN1CCCCC1 (racemic) [Compound 37, (4RS,5RS)-4-pentyl-5-phenyl-3-(3-piperidinopropyl)-1,3-oxazolidine-2-one]
- Blocking rate against glutamic acid [2, 7]: 58%

SMILES: CC(C)C[C@H]1[C@H](c2ccccc2)OC(=O)N1CCCN1CCCCC1 [Compound 7, (4S,5S)-4-(2-methylpropyl)-5-phenyl-3-(3-piperidinopropyl)-1,3-oxazolidine-2-one]
- inhibition in vivo at 3 mg/kg [1]: 64.8%
- Blocking rate against glutamic acid [2, 6]: 92%
- LD50 [3]: 30.4 mg/kg

SMILES: C[C@@H]1[C@H](c2ccccc2)OC(=O)N1CCN1CCCC1.Cl (racemic) [Comparative compound 4, (4RS,5SR)-4-methyl-5-phenyl-3-(2-pyrrolidinoethyl)-1,3-oxazolidine-2-one hydrochloride, reference compound]
- inhibition in vivo at 3 mg/kg [1]: 1%
- Blocking rate against glutamic acid [2, 6]: 45%

SMILES: CC1C(c2ccccc2)OC(=O)N1CCN1CCCCC1 (stereo not shown) [4-methyl-5-phenyl-3-(2-piperidinoethyl)-1,3-oxazolidine-2-one]
- neuraxial muscle relaxing effect [4]: extremely weak
- analgesic effect [5]: has an analgesic effect
- anti-convulsion effect [5]: exerts no anti-convulsion
- neuraxial muscle relaxing effect [5]: exerts no anti-convulsion nor neuraxial muscle relaxing effects

SMILES: CC(C)C[C@@H]1[C@H](c2ccccc2)OC(=O)N1CCCN1CCCCC1 [Compound 6, (4R,5S)-4-(2-methylpropyl)-5-phenyl-3-(3-piperidinopropyl)-1,3-oxazolidine-2-one]
- inhibition in vivo at 3 mg/kg [1]: 14.9%

SMILES: Cc1ccc([C@@H]2OC(=O)N(CCCN3CCCCC3)[C@@H]2CC(C)C)cc1 (racemic) [Compound 25, (4RS,5SR)-5-(4-methylphenyl)-4-(2-methylpropyl)-3-(3-piperidinopropyl)-1,3-oxazolidine-2-one]
- inhibition in vivo at 3 mg/kg [1]: 10.9%
- LD50 [3]: 34.9 mg/kg
